Values of other authors, collected in US20250032488A1, “METHODS OF TREATMENT USING LOU064” (NOVARTIS AG, priority 2021, published 2025).
Where “and” joins values, the source holds several entries; their conditions need not be identical. Equal values may be shown once. Read-outs that look alike come from different tables or passages of the source.

Tests used:
[1] = 75 mg b.i.d., Phase II; cited from earlier work
[2] = human, in vivo; cited from earlier work
[3] = higher dose treatment arms, phase IIa; cited from earlier work

Compound: C=CC(=O)N1CCC(CNc2ncnc(N)c2-c2ccc(Oc3ccccc3)cc2)CC1 [evobrutinib]
- Dose-limiting side effect [1]: dose-limiting liver enzyme elevations

Compound: C=CC(=O)N1CCC[C@@H](n2c(=O)n(-c3ccc(Oc4ccccc4)cc3)c3c(N)nccc32)C1 [tolebrutinib]
- Dose-limiting side effect [2]: dose-limiting diarrhea

Compound: C[C@H]1CN(C2COC2)CCN1c1ccc(Nc2cc(-c3ccnc(N4CCn5c(cc6c5CC(C)(C)C6)C4=O)c3CO)cn(C)c2=O)nc1 [fenebrutinib]
- Subjects with transient grade 3 elevations of ALT and/or AST [3]: 8.3% and 6.3%
